Key:
Assay in all cases: relative viability (nuclei count vs DMSO), 5 days (fraction); higher = more cells survive
[1] = compound: O=c1[nH]cc(F)c(=O)[nH]1 [5-Fluorouracil] + O=C(c1cc(Cc2n[nH]c(=O)c3ccccc23)ccc1F)N1CCN(C(=O)C2CC2)CC1 [Olaparib] (partner 8 µM)
Procedure, shortened: (§1)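 Relative viability was taken as the ratio of nuclei in treated wells to nuclei in vehicle wells. Lung cancer cell lines in 1536-well plates received compounds by pin tool one day after seeding, either one drug alone or a fixed anchor-drug dose plus five library-drug doses (not always all listed) in √10 steps. Nuclei were counted on 4× images after 5 days of treatment, and values are medians of duplicate plates.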

[2] = compound: O=c1[nH]cc(F)c(=O)[nH]1 [5-Fluorouracil] + N=C(N)NC(=N)NCCc1ccccc1 [Phenformin] (partner 250 µM)
Procedure, shortened: as §1

[3] = compound: CN[C@@H]1C[C@H]2O[C@@](C)([C@@H]1OC)n1c3ccccc3c3c4c(c5c6ccccc6n2c5c31)C(=O)NC4 [Staurosporine] + CS(=O)(=O)CCNCc1ccc(-c2ccc3ncnc(Nc4ccc(OCc5cccc(F)c5)c(Cl)c4)c3c2)o1 [Lapatinib] (partner 2 µM)
Procedure, shortened: as §1

[4] = compound: CC1=C(CC(=O)O)c2cc(F)ccc2/C1=C\c1ccc([S+](C)[O-])cc1 [Sulindac] + N=C(N)NC(=N)NCCc1ccccc1 [Phenformin] (partner 250 µM)
Procedure, shortened: as §1

Row | Cell Line | relative viability ([1]; first compound 0.02 µM) | relative viability ([1]; first compound 0.2 µM) | relative viability ([1]; first compound 2 µM) | relative viability ([2]; first compound 0.02 µM) | relative viability ([2]; first compound 0.2 µM) | relative viability ([2]; first compound 0.6325 µM) | relative viability ([2]; first compound 2 µM) | relative viability ([3]; first compound 0.005 µM) | relative viability ([3]; first compound 0.01581 µM) | relative viability ([3]; first compound 0.05 µM) | relative viability ([3]; first compound 0.1581 µM) | relative viability ([3]; first compound 0.5 µM) | relative viability ([4]; first compound 0.08 µM) | relative viability ([4]; first compound 0.253 µM) | relative viability ([4]; first compound 0.8 µM) | relative viability ([4]; first compound 2.53 µM) | relative viability ([4]; first compound 8 µM) | relative viability ([1]; first compound 0.6325 µM)
1 | EKVX | 0.667 | 0.277 | 0.169 | 0.18 | 0.179 | 0.13 | 0.134 | 0.152 | 0.135 | 0.162 | 0.156 | 0.1 | 0.244 | 0.214 | 0.211 | 0.218 | 0.226 | –
2 | EMC-BAC-2 | 0.479 | 0.53 | 0.469 | 0.625 | 0.542 | 0.498 | 0.51 | 0.427 | 0.498 | 0.178 | 0.188 | 0.167 | 0.551 | 0.566 | 0.352 | 0.533 | 0.61 | 0.45
3 | EPLC-272H | 0.737 | 0.67 | 0.21 | 0.247 | 0.257 | 0.245 | 0.184 | 0.787 | 0.194 | 0.513 | 0.175 | 0.149 | 0.272 | 0.324 | – | 0.307 | 0.263 | 0.32
4 | H3255 | 0.573 | 0.578 | 0.556 | 0.35 | 0.393 | 0.35 | 0.351 | 0.138 | 0.0852 | 0.124 | 0.142 | 0.137 | 0.333 | 0.295 | 0.357 | 0.336 | 0.335 | 0.578
5 | HARA | 0.775 | 1.01 | 0.845 | 0.426 | 0.559 | 0.455 | 0.27 | 0.485 | 0.327 | 0.308 | 0.118 | 0.0844 | 0.56 | 0.523 | 0.29 | 0.468 | 0.553 | 0.623
6 | HCC-15 | 0.741 | 0.707 | 0.33 | 0.563 | 0.532 | 0.332 | 0.27 | 0.892 | – | 0.595 | 0.365 | 0.151 | 0.54 | 0.468 | 0.323 | 0.491 | 0.57 | 0.521
7 | HCC-44 | 1.03 | 1.02 | 0.651 | – | 0.262 | 0.154 | 0.182 | 0.956 | – | 0.208 | 0.0947 | 0.0895 | 0.181 | 0.205 | 0.186 | 0.159 | 0.261 | 0.979
8 | HCC-78 | 0.755 | 0.599 | 0.28 | 0.697 | 0.706 | 0.558 | 0.312 | 0.238 | 0.22 | 0.38 | 0.263 | 0.232 | 0.792 | 0.689 | 0.614 | 0.763 | 0.738 | 0.331
9 | HCC-366 | 0.387 | 0.397 | 0.0788 | 0.562 | 0.622 | 0.424 | 0.0966 | 1.22 | – | 0.278 | 0.0407 | 0.0187 | 0.651 | 0.679 | 0.587 | 0.61 | 0.703 | 0.199
10 | HCC-827 | 0.336 | 0.647 | 0.304 | 0.363 | 0.37 | 0.414 | 0.29 | 0.223 | 0.186 | 0.182 | 0.125 | 0.163 | 0.395 | 0.367 | 0.414 | 0.413 | 0.426 | 0.552
11 | HOP-62 | 0.39 | 0.449 | 0.387 | 0.617 | 0.728 | 0.636 | 0.644 | 1.27 | 0.293 | 0.103 | 0.0855 | 0.0849 | 0.785 | 0.937 | – | 0.746 | 0.759 | 0.405
12 | LC-2-ad | 0.712 | 0.682 | 0.348 | 0.554 | 0.512 | 0.407 | 0.385 | 0.957 | 0.127 | 0.47 | 0.0776 | 0.0569 | 0.513 | 0.61 | 0.427 | 0.516 | 0.697 | 0.513
13 | LCLC-97TM1 | 0.334 | 0.363 | 0.232 | 0.386 | 0.472 | 0.443 | 0.407 | 0.864 | 0.168 | 0.285 | 0.174 | 0.381 | 0.497 | 0.518 | 0.447 | 0.441 | 0.486 | 0.257
14 | LK-2 | 0.589 | 0.814 | 0.428 | 0.597 | 0.582 | 0.57 | 0.381 | 1.31 | 0.924 | – | 0.346 | 0.178 | 0.412 | 0.421 | – | – | 0.529 | 0.529
15 | LOU-NH91 | 0.92 | 0.853 | 0.314 | 0.731 | 0.858 | 0.589 | 0.298 | 0.861 | 0.582 | 0.539 | 0.275 | 0.292 | 0.708 | 0.68 | 0.681 | 0.717 | 0.853 | 0.74
16 | LU99A | 0.307 | 0.259 | 0.226 | 0.905 | 0.786 | 0.738 | 0.586 | 0.669 | 0.313 | 0.282 | 0.171 | 0.133 | 0.86 | 0.853 | 0.83 | 0.827 | 1.11 | 0.267
17 | LXF-289 | 1.05 | 0.778 | 0.334 | 0.507 | 0.428 | 0.332 | 0.297 | 0.725 | – | 0.389 | 0.109 | 0.0903 | 0.551 | 0.559 | 0.491 | 0.517 | 0.559 | 0.439
